# Measured values reported in patent US11179383B2 (Gilead Sciences, Inc., priority 2018, dated 2021).
# Biological target: T1, α4β7 integrin (Homo sapiens, UniProt P13612+P26010)
# T1 construct: monitoring the capture of α4β7 integrin expressing cells on a recombinant MadCAM-1 extracellular domain-coated plate; endogenous in cells; host or cells: RPMI8866 cells
# T1 sequence (P13612 34-1032): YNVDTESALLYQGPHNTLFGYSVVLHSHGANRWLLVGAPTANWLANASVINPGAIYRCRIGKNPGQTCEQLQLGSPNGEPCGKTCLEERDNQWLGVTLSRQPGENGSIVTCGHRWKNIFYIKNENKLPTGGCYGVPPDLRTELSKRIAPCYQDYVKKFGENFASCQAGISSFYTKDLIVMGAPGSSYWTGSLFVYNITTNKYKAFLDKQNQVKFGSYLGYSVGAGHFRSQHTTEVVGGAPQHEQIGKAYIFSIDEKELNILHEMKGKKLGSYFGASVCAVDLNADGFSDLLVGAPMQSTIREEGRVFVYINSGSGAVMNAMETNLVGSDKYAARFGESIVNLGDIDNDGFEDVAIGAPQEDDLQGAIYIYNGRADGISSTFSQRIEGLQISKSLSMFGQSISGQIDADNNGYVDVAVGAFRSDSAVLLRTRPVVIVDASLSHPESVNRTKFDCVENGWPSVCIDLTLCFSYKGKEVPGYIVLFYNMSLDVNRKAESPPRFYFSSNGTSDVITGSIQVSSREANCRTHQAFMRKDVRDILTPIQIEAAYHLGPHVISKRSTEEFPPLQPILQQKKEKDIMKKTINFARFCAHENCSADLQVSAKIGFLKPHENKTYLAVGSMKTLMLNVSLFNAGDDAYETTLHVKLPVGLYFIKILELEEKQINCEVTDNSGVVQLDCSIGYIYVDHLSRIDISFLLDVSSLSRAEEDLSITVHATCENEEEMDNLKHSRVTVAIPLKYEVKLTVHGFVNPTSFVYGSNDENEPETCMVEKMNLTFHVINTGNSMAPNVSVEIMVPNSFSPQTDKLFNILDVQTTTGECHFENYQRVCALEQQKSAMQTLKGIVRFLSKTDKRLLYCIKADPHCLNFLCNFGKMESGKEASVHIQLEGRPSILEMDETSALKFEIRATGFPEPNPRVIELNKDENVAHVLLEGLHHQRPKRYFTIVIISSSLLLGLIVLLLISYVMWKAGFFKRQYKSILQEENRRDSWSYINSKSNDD
# T1 sequence (P26010 20-798): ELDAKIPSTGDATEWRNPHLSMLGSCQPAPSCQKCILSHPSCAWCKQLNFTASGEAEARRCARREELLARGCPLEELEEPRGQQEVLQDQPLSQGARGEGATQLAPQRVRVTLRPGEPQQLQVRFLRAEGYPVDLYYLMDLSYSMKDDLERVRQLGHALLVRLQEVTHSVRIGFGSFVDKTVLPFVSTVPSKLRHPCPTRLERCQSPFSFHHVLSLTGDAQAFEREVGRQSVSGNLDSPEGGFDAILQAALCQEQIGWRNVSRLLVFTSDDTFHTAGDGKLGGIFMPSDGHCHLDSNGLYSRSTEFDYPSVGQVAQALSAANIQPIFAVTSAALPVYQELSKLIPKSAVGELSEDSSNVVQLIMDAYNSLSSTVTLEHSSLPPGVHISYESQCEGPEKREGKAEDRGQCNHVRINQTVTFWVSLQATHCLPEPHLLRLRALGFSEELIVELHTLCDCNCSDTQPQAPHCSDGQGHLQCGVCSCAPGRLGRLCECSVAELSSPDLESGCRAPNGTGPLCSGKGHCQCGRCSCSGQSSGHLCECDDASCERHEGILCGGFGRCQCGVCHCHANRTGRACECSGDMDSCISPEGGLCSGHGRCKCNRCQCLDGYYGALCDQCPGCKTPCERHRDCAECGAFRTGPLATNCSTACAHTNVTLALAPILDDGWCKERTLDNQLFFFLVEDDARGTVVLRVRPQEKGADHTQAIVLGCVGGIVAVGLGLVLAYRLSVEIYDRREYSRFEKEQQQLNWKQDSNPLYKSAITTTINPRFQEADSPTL
# Experiment: α4β7 Integrin Cell Capture Assay
# Assay type: cell-based
# Conditions: capture of α4β7 integrin expressing RPMI8866 cells on recombinant MadCAM-1 extracellular domain-coated plate; DMEM+0.5% FBS+0.5 mM MnCl2; read-out: EC50 α4β7
# In short: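 RPMI8866 cells in DMEM + 0.5% FBS + 0.5 mM MnCl2 preincubated with compound 1 h at 37 °C, then allowed to bind 30 min at 37 °C to plates coated with MAdCAM-1 extracellular domain (1.0 μg/mL). Cells fixed with glutaraldehyde, Hoechst-stained, imaged and bound cells counted; EC50 from cell count versus concentration.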
row,EC50,Compound
1,152 nM,"COc1c(F)cc(F)cc1-c1ccc(C[C@H](NC(=O)c2c(Cl)cccc2Cl)C(=O)O)c2ncccc12 [Example 42, (S)-2-(2,6-dichlorobenzamido)-3-(5-(3,5-difluoro-2-methoxyphenyl)quinolin-8-yl)propanoic acid]"
2,161 nM,"COc1c(-c2ccc(C[C@H](NC(=O)c3c(Cl)cccc3Cl)C(=O)O)c3ncccc23)ccc(F)c1F [Example 43, (S)-2-(2,6-dichlorobenzamido)-3-(5-(3,4-difluoro-2-methoxyphenyl)quinolin-8-yl)propanoic acid]"
3,538 nM,"O=C(N[C@@H](Cc1ccc(-c2c(Cl)cccc2C(F)(F)F)c2cccnc12)C(=O)O)c1c(Cl)cccc1Cl [Example 44, (2S)-3-(5-(2-chloro-6-(trifluoromethyl)phenyl)quinolin-8-yl)-2-(2,6-dichlorobenzamido)propanoic acid]"
4,243 nM,"COc1c(F)cccc1-c1ccc(C[C@H](NC(=O)c2c(Cl)cccc2Cl)C(=O)O)c2ncccc12 [Example 45, (S)-2-(2,6-dichlorobenzamido)-3-(5-(3-fluoro-2-methoxyphenyl)quinolin-8-yl)propanoic acid]"
5,32.2 nM,"COc1cc(F)c(F)cc1-c1ccc(C[C@H](NC(=O)c2c(Cl)cccc2Cl)C(=O)O)c2ncccc12 [Example 46, (S)-2-(2,6-dichlorobenzamido)-3-(5-(4,5-difluoro-2-methoxyphenyl)quinolin-8-yl)propanoic acid]"
6,45.1 nM,"O=C(N[C@@H](Cc1ccc(-c2nccc(C(F)(F)F)c2Cl)c2cccnc12)C(=O)O)c1c(Cl)cccc1Cl [Example 51, (S)-3-(5-(3-chloro-4-(trifluoromethyl)pyridin-2-yl)quinolin-8-yl)-2-(2,6-dichlorobenzamido)propanoic acid]"
7,43.8 nM,"COc1cc(F)c(Cl)cc1-c1ccc(C[C@H](NC(=O)c2c(Cl)cccc2Cl)C(=O)O)c2ncccc12 [Example 52, (S)-3-(5-(5-chloro-4-fluoro-2-methoxyphenyl)quinolin-8-yl)-2-(2,6-dichlorobenzamido)propanoic acid]"
8,63.1 nM,"[2H]C([2H])([2H])Oc1cc(F)c(F)cc1-c1ccc(C[C@H](NC(=O)c2c(Cl)cccc2Cl)C(=O)O)c2ncccc12 [Example 55, (S)-2-(2,6-dichlorobenzamido)-3-(5-(4,5-difluoro-2-(methoxy-d3)phenyl)quinolin-8-yl)propanoic acid]"
9,68.5 nM,"COc1cc(F)c(C)cc1-c1ccc(C[C@H](NC(=O)c2c(Cl)cccc2Cl)C(=O)O)c2ncccc12 [Example 56, (S)-2-(2,6-dichlorobenzamido)-3-(5-(4-fluoro-2-methoxy-5-methylphenyl)quinolin-8-yl)propanoic acid]"
10,23.6 nM,"O=C(N[C@@H](Cc1ccc(-c2nccc(Cl)c2C(F)(F)F)c2cccnc12)C(=O)O)c1c(Cl)cccc1Cl [Example 57, (S)-3-(5-(4-chloro-3-(trifluoromethyl)pyridin-2-yl)quinolin-8-yl)-2-(2,6-dichlorobenzamido)propanoic acid]"
11,19.2 nM,"Cn1c(=O)c(-c2ccc(C[C@H](NC(=O)c3c(Cl)cccc3Cl)C(=O)O)c3ncccc23)c(C(F)(F)F)c2cc(Br)ccc21 [Example 58, (S)-3-(6-bromo-1-methyl-2-oxo-4-(trifluoromethyl)-1,2-dihydro-[3,5′-biquinolin]-8′-yl)-2-(2,6-dichlorobenzamido)propanoic acid]"
12,10.7 nM,"Cn1c(=O)c(-c2ccc(C[C@H](NC(=O)c3c(Cl)cccc3Cl)C(=O)O)c3ncccc23)c(C(F)(F)F)c2ccccc21 [Example 59, (S)-2-(2,6-dichlorobenzamido)-3-(1-methyl-2-oxo-4-(trifluoromethyl)-1,2-dihydro-[3,5′-biquinolin]-8′-yl)propanoic acid]"
13,6.2 nM,"Cc1c(-c2ccc(C[C@H](NC(=O)c3c(Cl)cccc3Cl)C(=O)O)c3ncccc23)c(=O)n(C)c2ccc(C(F)(F)F)cc12 [Example 66, (S)-2-(2,6-dichlorobenzamido)-3-(1,4-dimethyl-2-oxo-6-(trifluoromethyl)-1,2-dihydro-[3,5′-biquinolin]-8′-yl)propanoic acid]"
14,2.5 nM,"Cc1c(-c2ccc(C[C@H](NC(=O)c3c(Cl)cccc3Cl)C(=O)O)c3ncccc23)c(=O)n(C)c2ccc(Cl)cc12 [Example 67, (S)-3-(6-chloro-1,4-dimethyl-2-oxo-1,2-dihydro-[3,5′-biquinolin]-8′-yl)-2-(2,6-dichlorobenzamido)propanoic acid]"
15,2.7 nM,"Cn1c2c(c(C(F)(F)F)c(-c3ccc(C[C@H](NC(=O)c4c(Cl)cccc4Cl)C(=O)O)c4ncccc34)c1=O)CCC2 [Example 68, (S)-2-(2,6-dichlorobenzamido)-3-(5-(1-methyl-2-oxo-4-(trifluoromethyl)-2,5,6,7-tetrahydro-1H-cyclopenta[b]pyridin-3-yl)quinolin-8-yl)propanoic acid]"
16,9.2 nM,"COc1cnn(C)c(=O)c1-c1ccc(C[C@H](NC(=O)c2c(Cl)cccc2Cl)C(=O)O)c2ncccc12 [Example 69, (S)-2-(2,6-dichlorobenzamido)-3-(5-(5-methoxy-2-methyl-3-oxo-2,3-dihydropyridazin-4-yl)quinolin-8-yl)propanoic acid]"
17,55.1 nM,"Cc1c(-c2ccc(C[C@H](NC(=O)c3c(Cl)cccc3Cl)C(=O)O)c3ncccc23)c(=O)n(C)c2ccc(Br)cc12 [Example 70, (S)-3-(6-bromo-1,4-dimethyl-2-oxo-1,2-dihydro-[3,5′-biquinolin]-8′-yl)-2-(2,6-dichlorobenzamido)propanoic acid]"
18,15.4 nM,"Cc1c(-c2ccc(C[C@H](NC(=O)c3c(Cl)cccc3Cl)C(=O)O)c3ncccc23)c(=O)n(C)c2ccc(C3CC3)cc12 [Example 71, (S)-3-(6-cyclopropyl-1,4-dimethyl-2-oxo-1,2-dihydro-[3,5′-biquinolin]-8′-yl)-2-(2,6-dichlorobenzamido)propanoic acid]"
19,11.2 nM,"COc1cnn(C)c(=O)c1-c1ccc(C[C@H](NC(=O)c2c(Cl)cccc2Cl)C(=O)O)c2ncccc12 [Example 72, (S)-2-(2,6-dichlorobenzamido)-3-(5-(5-methoxy-2-methyl-3-oxo-2,3-dihydropyridazin-4-yl)quinolin-8-yl)propanoic acid]"
20,131 nM,"Cc1c(-c2ccc(C[C@H](NC(=O)c3c(Cl)cccc3Cl)C(=O)O)c3ncccc23)c(=O)n(C)c2cc(Cl)ccc12 [Example 74, (S)-3-(7-chloro-1,4-dimethyl-2-oxo-1,2-dihydro-[3,5′-biquinolin]-8′-yl)-2-(2,6-dichlorobenzamido)propanoic acid]"
21,12.4 nM,"CCOCc1cc(OC)c(-c2ccc(C[C@H](NC(=O)c3c(F)cccc3F)C(=O)O)c3ncccc23)c(OC)c1 [Example 78, (S)-2-(2,6-difluorobenzamido)-3-(5-(4-(ethoxymethyl)-2,6-dimethoxyphenyl)quinolin-8-yl)propanoic acid]"
22,45.7 nM,"COc1cc(F)c(F)cc1-c1ccc(C[C@H](NC(=O)c2c(F)cccc2F)C(=O)O)c2ncccc12 [Example 79, (S)-3-(5-(4,5-difluoro-2-methoxyphenyl)quinolin-8-yl)-2-(2,6-difluorobenzamido) propanoic acid]"
